Laboratory results: patent US20260374818A1, “CATIONIC PEPTIDES WITH BROAD SPECTRUM ACTIVITY” (priority 2023, published 2026)
Converted amounts (≈) assume the structure as drawn. Where two headings read alike, the source gives them in different places. Where a SMILES comes first, the peptide text is derived from it. [ ]: non-standard residue; d: D form.

What was measured:
[1] = test system: MRSA USA300 biofilms; test: Biofilm inhibition by >95% pure peptides (crystal violet), MRSA; format: cell-based, methicillin resistant Staphylococcus aureus; conditions: MRSA USA300 biofilms, >95% pure peptides, 10% TSB + 0.1% glucose
[2] = test system: MRSA USA 300; test: MIC (broth microdilution) of peptides, MRSA; format: cell-based, methicillin resistant Staphylococcus aureus; conditions: MRSA USA300; mode of three biological replicates
Protocol: (§1) Minimal inhibitory concentration (MIC) against planktonic bacteria: The MIC of the synthetic peptides was determined in Mueller-Hinton broth (MHB) using the broth microdilution method described previously [Wiegand, I., Hilpert, K., & Hancock, R. E. (2008). Agar and broth dilution methods to determine the minimal inhibitory concentration (MIC) of antimicrobial substances. Nature Protocols, 3(2), 163-175]. Briefly, 10 μl of a 10× concentrated peptide solution was placed in the bottom of a well in a 96-well polypropylene round bottom plate (Corning Inc.). A bacterial suspension of ~5×10^5 CFU/ml was prepared from an overnight culture and 90 μl of this was added to each well. […] Bacteria tested included P. aeruginosa PAO1, MRSA USA300 LAC, Staphylococcus haemolyticus, Staphylococcus epidermidis, Klebsiella pneumoniae and Streptococcus salivarius.
(§2) Finally, the AB103-D derivatives that were the least aggregation prone and which produced the lowest toxic effects in vivo were evaluated for their direct antibacterial activity towards several pathogens of clinical relevance using a standard minimum inhibitory concentration (MIC) assay [Wiegand, I., Hilpert, K., & Hancock, R. E. (2008). Agar and broth dilution methods to determine the minimal inhibitory concentration (MIC) of antimicrobial substances. Nature Protocols, 3(2), 163-175]. Specifically, peptides AB110-D, AB111-D, AB114-D and AB115-D were tested against P. aeruginosa PAO1, MRSA USA 300, Staphylococcus haemolyticus, Staphylococcus epidermidis, Klebsiella pneumoniae and Streptococcus salivarius and compared against the antibacterial activity of DJK-5 and AB103-D (Table 7). Overall, the antibacterial potency of all of the AB103-D derivatives was stronger than that seen for DJK-5, particularly in the case of the Gram-negative pathogens P. aeruginosa and K. pneumoniae. […]

[3] = Subdermal murine toxicity model; conditions: for Average cyst size compared to DJK-5: 16 hours after administration, 4 mg/kg
Protocol: FIGS. 14A-14B show murine subdermal toxicity assessment of AB103-D derived peptides. Clinical scores were recorded for each peptide treated mouse one hour after peptide administration (FIG. 14A). […] The presence of a cyst or lesion was recorded 16 hours after peptide administration and the size of the cyst was measured using calipers (FIG. 14B). Data shown are the mean of two independent replicates at a peptide dose of 4 mg/kg.
Subdermal murine toxicity model: A subdermal toxicity mouse model was used to evaluate whether peptides induced localized toxicity of treated cutaneous tissue. Mice were anesthetized with 2.5-3% isoflurane and their fur was removed by shaving followed by application of a chemical depilatory. […] Mice were visually assessed and received clinical scores for a battery of signs or symptoms (activity/behaviour change, appearance/grooming, hydration, pain, cyst formation), for which a score of zero was given to animals that appeared normal. Animals were weighed and clinical scores were totalled. Following an overnight (16 h) incubation, mice were scored and weighed then euthanized with CO2 followed by cervical dislocation. Mice were imaged and cysts (swollen, inflamed tissue) were measured using a caliper. Animal experiments were performed in accordance with the Canadian Council on Animal Care (CCAC) guidelines and were approved by the University of British Columbia Animal Care Committee. Female CD-1 mice were purchased from Charles River Laboratories, Inc. (Wilmington, MA). All mice were 8 weeks of age and weighed 25±5 g at the time of the experiment. Animals were group housed in cohorts of three to four littermates. Standard animal husbandry practices were employed.

[4] = test system: Staphylococcus haemolyticus; test: MIC (broth microdilution) of peptides, S. haemolyticus; format: cell-based; conditions: mode of three biological replicates
Protocol: as §1, §2

[5] = test system: Klebsiella pneumoniae; test: MIC (broth microdilution) of peptides, K. pneumoniae; format: cell-based; conditions: mode of three biological replicates
Protocol: as §1, §2

[6] = test system: P. aeruginosa PAO1; test: MIC (broth microdilution) of peptides, P. aeruginosa; format: cell-based, Pseudomonas aeruginosa; conditions: mode of three biological replicates
Protocol: as §1, §2

[7] = test system: P. aeruginosa PAO1 biofilms; conditions: P. aeruginosa PAO1 biofilms; >95% pure peptides; crystal violet; BM2 minimal media
[8] = test system: Staphylococcus epidermidis; test: MIC (broth microdilution) of peptides, S. epidermidis; format: cell-based; conditions: mode of three biological replicates
Protocol: as §1, §2

[9] = test system: Streptococcus salivarius; test: MIC (broth microdilution) of peptides, S. salivarius; format: cell-based; conditions: mode of three biological replicates
Protocol: as §1, §2

[10] = test system: P. aeruginosa PAO1; test: Biofilm inhibition (at least 80%), P. aeruginosa; format: cell-based, Pseudomonas aeruginosa; conditions: n = 4, BM2 minimal media, 18-24 hours, crystal violet
[11] = test system: MRSA USA300; test: Biofilm inhibition (at least 80%), MRSA; format: cell-based, methicillin resistant Staphylococcus aureus; conditions: n = 4, 10% TSB + 0.1% glucose, 18-24 hours, crystal violet
[12] = test system: E. coli O157:H7; test: Biofilm inhibition (at least 80%), E. coli; format: cell-based, Escherichia coli; conditions: n = 3, BM2 minimal media, 18-24 hours, crystal violet
[13] = test system: Acinetobacter baumannii Ab5075; test: Biofilm inhibition (at least 80%), A. baumannii; format: cell-based; conditions: n = 4, BM2 minimal media, 18-24 hours, crystal violet
[14] = test system: P. aeruginosa PAO1 biofilms; test: Biofilm inhibition by SPOT-synthesized AB103-D variants (crystal violet), P. aeruginosa; format: cell-based, Pseudomonas aeruginosa; conditions: P. aeruginosa PAO1, SPOT peptides
[15] = test system: MRSA USA 300 LAC biofilms; test: Checkerboard biofilm synergy of AB103-D with antimicrobials, MRSA; format: cell-based, methicillin resistant Staphylococcus aureus; conditions: for FIC: antibiotic used with AB103-D, MRSA USA 300 LAC, ≤0.5 synergy; for Fold decrease AB103-D: in combination of antibiotic with AB103-D; for Fold decrease Antibiotic: in combination with AB103-D
[16] = test system: P. aeruginosa PAO1 biofilms; test: Checkerboard biofilm synergy of AB103-D with antimicrobials, PAO1; format: cell-based, Pseudomonas aeruginosa; conditions: for FIC against biofilms: antibiotic used with AB103-D, PAO1, BM2, ≤0.5 synergy; for Fold Decrease in concentration of AB103-D: in combination of antibiotic with AB103-D; for Fold Decrease in concentration of AB103-D / Fold Decrease in concentration of Antibiotic: PAO1; for Fold Decrease in concentration of Antibiotic: in combination with AB103-D; for Antibiotic MBIC against biofilms: antibiotic alone, PAO1, BM2, at least 70% reduction
[17] = test system: MRSA USA 300 LAC planktonic cells; test: MIC of antibiotics against planktonic cells, MRSA; format: cell-based, methicillin resistant Staphylococcus aureus; conditions: for MIC: Staphylococcus aureus
[18] = test system: P. aeruginosa PAO1 planktonic cells; test: MIC of antibiotics against planktonic cells, PAO1; format: cell-based, Pseudomonas aeruginosa; conditions: for MIC: Pseudomonas aeruginosa; for MIC against planktonic cells in BM2 medium: PAO1, BM2
[19] = read-out: MIC in 10% TSB, 0.1% glucose
[20] = PAO1, read-out: MIC against planktonic cells in BM2 medium
[21] = PAO1, read-out: MIC against planktonic cells in MHB medium

| SMILES | minimum inhibitory concentration of peptide that inhibited at least 90% of biofilm growth (MBIC90) [1] [µM] | Average cyst size compared to DJK-5 [3] | minimum inhibitory concentration of peptide that inhibited at least 90% of biofilm growth (MBIC90) [7] [µM] | FIC [15] | Fold decrease AB103-D ([15]; MRSA) | Fold decrease Antibiotic ([15]; MRSA) | FIC against biofilms [16] | Fold Decrease in concentration of AB103-D [16] | Fold Decrease in concentration of Antibiotic [16] | MIC [17, 19] [µg/mL] | MIC ([17]; read-out: MIC in MHB medium) [µg/mL] | MIC [18, 20] [µg/mL] | MIC [18, 21] [µg/mL] | further results |
| --- | --- | --- | --- | --- | --- | --- | --- | --- | --- | --- | --- | --- | --- | --- |
| CC[C@@H](C)[C@@H](NC(=O)[C@@H](C)NC(=O)[C@@H](CCCNC(=N)N)NC(=O)[C@@H](CC(C)C)NC(=O)[C@@H](CCC(N)=O)NC(=O)[C@H](NC(=O)[C@@H](CCCNC(=N)N)NC(=O)[C@H](NC(=O)[C@H](NC(=O)[C@@H](CCCNC(=N)N)NC(=O)[C@H](NC(=O)[C@H](N)CCCNC(=N)N)C(C)C)C(C)C)[C@H](C)CC)C(C)C)C(N)=O [AB115-D, rvrvirvqlrai] (H-[dR][dV][dR][dV][dI][dR][dV][dQ][dL][dR][dA][dI]-NH2) | 1 | smaller than those induced by DJK-5 | 8 |  |  |  |  |  |  |  |  |  |  | MIC [2]: 0.8 µg/mL (≈ 0.541 µM); Clinical score ([3]; 1 hour after subcutaneous administration, comparator DJK-5): < 2; MIC [4]: 0.8 µg/mL (≈ 0.541 µM); MIC [5]: 0.8 µg/mL (≈ 0.541 µM); MIC [6]: 2 µg/mL (≈ 1.35 µM); MIC [8]: 0.8 µg/mL (≈ 0.541 µM); MIC [9]: 0.8 µg/mL (≈ 0.541 µM) |
| O=C(O)c1cn(C2CC2)c2cc(N3CCNCC3)c(F)cc2c1=O [CIP] |  |  |  |  |  |  |  |  |  |  |  |  |  | Peptide/Antibiotic Concentration where at least 80% of biofilm growth was inhibited [10]: 0.125 µg/mL; Peptide/Antibiotic Concentration where at least 80% of biofilm growth was inhibited [11]: 8 µg/mL; Peptide/Antibiotic Concentration where at least 80% of biofilm growth was inhibited [12]: 0.0625 µg/mL; Peptide/Antibiotic Concentration where at least 80% of biofilm growth was inhibited [13]: 32 µg/mL |
| CC[C@@H](C)[C@@H](NC(=O)[C@@H](C)NC(=O)[C@@H](CCCNC(=N)N)NC(=O)[C@@H](Cc1c[nH]c2ccccc12)NC(=O)[C@@H](CCC(N)=O)NC(=O)[C@H](NC(=O)[C@@H](CCCNC(=N)N)NC(=O)[C@H](NC(=O)[C@H](NC(=O)[C@H](NC(=O)[C@H](NC(=O)[C@H](N)CCCNC(=N)N)C(C)C)[C@H](C)CC)C(C)C)[C@H](C)CC)C(C)C)C(N)=O [AB116-D, rvivirvqwrai] (H-[dR][dV][dI][dV][dI][dR][dV][dQ][dW][dR][dA][dI]-NH2) | 1 | smaller than those induced by DJK-5 | >16 |  |  |  |  |  |  |  |  |  |  | Activity against PAO1 biofilms compared to AB103-D [14]: activity superior to that of AB103-D |
| CC[C@@H](C)[C@@H](NC(=O)[C@@H](C)NC(=O)[C@@H](CCCNC(=N)N)NC(=O)[C@@H](Cc1c[nH]c2ccccc12)NC(=O)[C@@H](CCC(N)=O)NC(=O)[C@H](NC(=O)[C@@H](CCCNC(=N)N)NC(=O)[C@H](NC(=O)[C@@H](Cc1c[nH]c2ccccc12)NC(=O)[C@@H](CCCNC(=N)N)NC(=O)[C@H](NC(=O)[C@H](N)CCCNC(=N)N)C(C)C)[C@H](C)CC)C(C)C)C(N)=O [AB110-D, rvrwirvqwrai] (H-[dR][dV][dR][dW][dI][dR][dV][dQ][dW][dR][dA][dI]-NH2) | 1 | smaller than those induced by DJK-5 | 4 |  |  |  |  |  |  |  |  |  |  | MIC [2]: 0.8 µg/mL (≈ 0.488 µM); MIC [4]: 0.8 µg/mL (≈ 0.488 µM); MIC [6]: 2 µg/mL (≈ 1.22 µM); Activity against PAO1 biofilms compared to AB103-D [14]: activity superior to that of AB103-D |
| CC(C)(O/N=C(\C(=O)N[C@@H]1C(=O)N2C(C(=O)[O-])=C(C[n+]3ccccc3)CS[C@H]12)c1csc(N)n1)C(=O)O [Ceftazidime] |  |  |  | 0.5 | 4-fold | 4-fold | 0.5 | 4-fold | 4-fold | 64 | 32 | 2 | 1 |  |
| O=C(O)CN(CCN(CC(=O)O)CC(=O)O)CC(=O)O [EDTA] |  |  |  | 0.38 | 4-fold | 8-fold | 1.02 | No | 64-fold |  |  |  |  | Biofilm MBIC in 10% TSB, 0.1% glucose ([15]; antibiotic alone, MRSA, at least 70% reduction): 128; Antibiotic MBIC against biofilms [16]: 128 µg/mL; MIC in 10% TSB, 0.1% glucose ([17]; MRSA planktonic, 10% TSB, 0.1% glucose): 128; MIC in MHB medium ([17]; MRSA planktonic, MHB): 64 µg/mL; MIC against planktonic cells in BM2 medium [18]: >256 µg/mL; MIC against planktonic cells in MHB medium ([18]; PAO1, MHB): >256 µg/mL |
| CN[C@H](CC(C)C)C(=O)N[C@H]1C(=O)N[C@@H](CC(N)=O)C(=O)N[C@H]2C(=O)N[C@H]3C(=O)N[C@H](C(=O)N[C@H](C(=O)O)c4cc(O)cc(O)c4-c4cc3ccc4O)[C@H](O)c3ccc(c(Cl)c3)Oc3cc2cc(c3O[C@@H]2O[C@H](CO)[C@@H](O)[C@H](O)[C@H]2O[C@H]2C[C@](C)(N)[C@H](O)[C@H](C)O2)Oc2ccc(cc2Cl)[C@H]1O [Vancomycin] |  |  |  | 0.38 | 8-fold | 4-fold | 0.56 | 2-fold | 16-fold | 0.25 | 0.25 | 256 | > 256 |  |
| CO/N=C(\C(=O)N[C@@H]1C(=O)N2C(C(=O)[O-])=C(C[N+]3(C)CCCC3)CS[C@H]12)c1csc(N)n1 [Cefepime] |  |  |  | 0.38 | 8-fold | 4-fold | 0.56 | 2-fold | 16-fold | 8 | 8 | 0.5 | 1 |  |
| C[C@H]1COc2c(N3CCN(C)CC3)c(F)cc3c(=O)c(C(=O)O)cn1c23 [Levofloxacin] |  |  |  | 0.75 | 4-fold | 2-fold | 0.63 | 2-fold | 8-fold | 8 | 4 |  | 0.25 | Antibiotic MBIC against biofilms [16]: 0.125 µg/mL; MIC against planktonic cells in BM2 medium [18]: 0.125 µg/mL |
